The test system of the assay is Male BALB/c HSD mice. The assay can be described thus: Survival of mice rendered hepatotoxic by LPS/GAL treatment (hepatic failure / septic shock model). Particulars: for survival time compared to mice receiving LPS/GAL only: mice made septic by LPS/GAL treatment, 4 mg/kg intraperitoneal x5, result in words; for SURVIVAL 15 Hours (number of surviving mice) / SURVIVAL 15 Hours (percent of mice) / SURVIVAL 20 Hours (number of surviving mice) / SURVIVAL 20 Hours (percent of mice) / SURVIVAL 40 Hours (number of surviving mice) / SURVIVAL 40 Hours (percent of mice) / SURVIVAL 65 Hours (number of surviving mice) / SURVIVAL 65 Hours (percent of mice): n=15 mice, 4 mg/kg intraperitoneal at 0 h, 2 h, 4 h, 6 h and 7.5 h, LPS/GAL at 6.5 h; for SURVIVAL 15 Hours (number of surviving mice) / SURVIVAL 15 Hours (percent of mice): 15 h after the last injection; for SURVIVAL 20 Hours (number of surviving mice) / SURVIVAL 20 Hours (percent of mice): 20 h after the last injection; for SURVIVAL 40 Hours (number of surviving mice) / SURVIVAL 40 Hours (percent of mice): 40 h after the last injection; for SURVIVAL 65 Hours (number of surviving mice) / SURVIVAL 65 Hours (percent of mice): 65 h after the last injection. The class given is in vivo. As for the experimental part:
Hepatic failure was induced in mice by intraperitoneal injections of a mixture of lipopolysaccharide (LPS) ([…]) and D-galactosamine (GAL) (700 mg/kg) to form LPS/GAL. LPS is a bacterial endotoxin that is a major stimulus for production of many cytokines, particularly tumor necrosis factor (TNF), thought to be involved in liver injury. GAL is an amino sugar that sensitizes hepatocytes by depleting the base uridine and thus preventing hepatic transcription, and sensitizes animals to normally innocuous amounts of endotoxin or TNF. The LPS/GAL treatment induces fulminate hepatic and multiorgan failure, and serves as a model for septic shock. The major effects of LPS/GAL are elicited by the inflammatory cytokine TNF-α. Hepatocytes sensitized to TNF-α then undergo apoptosis or programmed cell death in response to inflammatory processes.
Mice were treated with deltorphin and were subsequently rendered hepatotoxic by LPS/GAL treatment. An emulsion of deltorphin I SEQ ID NO:1 (Tyr-D-Ala-Phe-Asp-Val-Val-Gly-NH2) was prepared at a concentration of 80 μg/200 μl in sterile phosphate buffered saline (PBS). An emulsion of DADLE (Tyr-D-Ala-Gly-Phe-D-Leu-enkephalin) was also prepared at a concentration of 80 μg/200 μl in sterile PBS. Male BALB/c HSD mice were treated by intraperitoneal injections according to the following protocol. Control mice (n=7) received only LPS/GAL (280 μl) at 6.5 h. Deltorphin I SEQ ID NO:1 treated mice (n=15) received injections of 4 mg/kg deltorphin I SEQ ID NO:1 at 0 h, 2 h, 4 h, 6 h and 7.5 h and received an LPS/GAL injection at 6.5 h. DADLE treated mice (n 15) received 4 mg/kg DADLE at 0 h, 2 h, 4 h, 6 h and 7.5 h and received an LPS/GAL injection at 6.5 h.
Both control and treated mice were monitored at 15 h, 20 h, 40 h and 65 h after the last injection.

For “Tyr-D-Ala-Phe-Asp-Val-Val-Gly-NH2 [deltorphin I SEQ ID NO:1]”, the “survival time compared to mice receiving LPS/GAL only” value is on record as “markedly increased survival time”, the “SURVIVAL 15 Hours (number of surviving mice)” value is 12, the “SURVIVAL 15 Hours (percent of mice)” value came to 80% and the “SURVIVAL 20 Hours (number of surviving mice)” value was determined as 11. In addition, the “SURVIVAL 20 Hours (percent of mice)” value is recorded as 73%, the “SURVIVAL 40 Hours (number of surviving mice)” value is recorded as 11, the “SURVIVAL 40 Hours (percent of mice)” value is listed as 73% and the “SURVIVAL 65 Hours (number of surviving mice)” value is 11. In addition, the “SURVIVAL 65 Hours (percent of mice)” value was 73%.

On to `CC(C)C[C@@H](NC(=O)[C@H](Cc1ccccc1)NC(=O)CNC(=O)[C@@H](C)NC(=O)[C@@H](N)Cc1ccc(O)cc1)C(=O)O` [DADLE, Tyr-D-Ala-Gly-Phe-D-Leu-enkephalin], for which the “survival time compared to mice receiving LPS/GAL only” value is reported as “not as striking at any time point”, the “SURVIVAL 15 Hours (number of surviving mice)” value was 3, the “SURVIVAL 15 Hours (percent of mice)” value was determined as 20% and the “SURVIVAL 20 Hours (number of surviving mice)” value is on record as 3. Besides, the “SURVIVAL 20 Hours (percent of mice)” value worked out at 20%, the “SURVIVAL 40 Hours (number of surviving mice)” value is listed as 3, the “SURVIVAL 40 Hours (percent of mice)” value amounted to 20% and the “SURVIVAL 65 Hours (number of surviving mice)” value is given as 3. Moreover, the “SURVIVAL 65 Hours (percent of mice)” value worked out at 20%.

Values taken from patent publication US6380164B1, “Method for treating cytokine mediated hepatic injury” (University of Kentucky Research Foundation, priority 1999, dated 2002).
